According to the kinase profiling compilation of Christmann-Franck et al. (2016):

Columns and labels:
Experiment in all cases: radiometric filter-binding kinase assay, Kinaseprofiler
[1] = target: DCLK2 (human) (UniProt Q8N568); conditions: ATP 90 µM
[2] = target: MAP2K6 (human) (UniProt P52564); conditions: ATP 10 µM
[3] = target: CHEK1 (human) (UniProt O14757); conditions: ATP 90 µM
[4] = target: SRPK1 (human) (UniProt Q96SB4); conditions: ATP 10 µM
[5] = target: PTK2 (human) (UniProt Q05397); conditions: ATP 70 µM
[6] = target: EPHA8 (human) (UniProt P29322); conditions: ATP 200 µM
[7] = target: NEK6 (human) (UniProt Q9HC98); conditions: ATP 45 µM
[8] = target: SRC (human) (UniProt P12931); conditions: ATP 200 µM
Sequence of SRC (human) (P12931 whole entry, looked up): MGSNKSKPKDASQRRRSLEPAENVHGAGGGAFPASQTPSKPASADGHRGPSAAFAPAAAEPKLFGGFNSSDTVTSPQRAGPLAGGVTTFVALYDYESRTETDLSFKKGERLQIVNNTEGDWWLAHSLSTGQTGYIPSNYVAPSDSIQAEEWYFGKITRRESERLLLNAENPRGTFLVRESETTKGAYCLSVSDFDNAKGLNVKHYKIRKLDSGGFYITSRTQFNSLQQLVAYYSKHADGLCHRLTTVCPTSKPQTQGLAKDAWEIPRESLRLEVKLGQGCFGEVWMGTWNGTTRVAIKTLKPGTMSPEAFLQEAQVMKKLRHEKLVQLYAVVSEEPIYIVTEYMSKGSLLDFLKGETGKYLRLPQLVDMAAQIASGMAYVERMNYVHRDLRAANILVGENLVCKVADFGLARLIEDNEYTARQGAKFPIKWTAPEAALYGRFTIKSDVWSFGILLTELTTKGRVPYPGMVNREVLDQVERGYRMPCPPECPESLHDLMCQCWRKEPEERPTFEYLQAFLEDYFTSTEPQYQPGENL

[9] = target: EPHA3 (human) (UniProt P29320); conditions: ATP 120 µM
Sequence of EPHA3 (human) (P29320 whole entry, looked up): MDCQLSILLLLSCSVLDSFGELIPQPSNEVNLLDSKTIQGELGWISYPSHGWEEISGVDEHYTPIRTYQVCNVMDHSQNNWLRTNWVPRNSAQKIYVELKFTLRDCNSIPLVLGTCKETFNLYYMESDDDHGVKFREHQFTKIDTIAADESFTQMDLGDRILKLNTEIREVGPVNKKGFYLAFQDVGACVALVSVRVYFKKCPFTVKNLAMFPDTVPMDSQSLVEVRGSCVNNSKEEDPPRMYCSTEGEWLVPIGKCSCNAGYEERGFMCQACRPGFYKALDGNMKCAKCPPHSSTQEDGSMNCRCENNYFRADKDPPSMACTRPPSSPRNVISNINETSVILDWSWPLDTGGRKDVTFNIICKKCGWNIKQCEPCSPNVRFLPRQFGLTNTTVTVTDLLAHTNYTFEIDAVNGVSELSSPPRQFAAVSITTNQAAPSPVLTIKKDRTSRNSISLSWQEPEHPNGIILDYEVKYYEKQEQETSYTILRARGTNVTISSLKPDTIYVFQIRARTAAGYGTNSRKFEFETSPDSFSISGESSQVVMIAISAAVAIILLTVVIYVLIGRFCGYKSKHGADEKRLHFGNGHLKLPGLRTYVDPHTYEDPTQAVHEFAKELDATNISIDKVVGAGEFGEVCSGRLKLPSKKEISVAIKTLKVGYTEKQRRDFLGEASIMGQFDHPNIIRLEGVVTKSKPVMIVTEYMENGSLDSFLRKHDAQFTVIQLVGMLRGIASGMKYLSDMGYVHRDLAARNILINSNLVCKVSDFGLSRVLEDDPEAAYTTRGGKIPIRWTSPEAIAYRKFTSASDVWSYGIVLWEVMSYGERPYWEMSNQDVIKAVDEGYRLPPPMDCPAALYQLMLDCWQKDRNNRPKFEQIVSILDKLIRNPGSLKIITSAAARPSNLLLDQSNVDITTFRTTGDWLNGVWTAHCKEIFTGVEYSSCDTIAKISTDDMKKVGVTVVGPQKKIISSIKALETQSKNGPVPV

[10] = target: CDK5 CDK5R1 p35 (human) (UniProt Q00535+Q15078); conditions: ATP 15 µM
[11] = target: NEK2 (human) (UniProt P51955); conditions: ATP 120 µM
[12] = target: NTRK1 (human) (UniProt P04629); conditions: ATP 120 µM
[13] = target: MUSK (human) (UniProt O15146); conditions: ATP 155 µM
[14] = target: HIPK3 (human) (UniProt Q9H422); conditions: ATP 15 µM
[15] = target: IGF1R (human) (UniProt P08069)
Sequence of IGF1R (human) (P08069 whole entry, looked up): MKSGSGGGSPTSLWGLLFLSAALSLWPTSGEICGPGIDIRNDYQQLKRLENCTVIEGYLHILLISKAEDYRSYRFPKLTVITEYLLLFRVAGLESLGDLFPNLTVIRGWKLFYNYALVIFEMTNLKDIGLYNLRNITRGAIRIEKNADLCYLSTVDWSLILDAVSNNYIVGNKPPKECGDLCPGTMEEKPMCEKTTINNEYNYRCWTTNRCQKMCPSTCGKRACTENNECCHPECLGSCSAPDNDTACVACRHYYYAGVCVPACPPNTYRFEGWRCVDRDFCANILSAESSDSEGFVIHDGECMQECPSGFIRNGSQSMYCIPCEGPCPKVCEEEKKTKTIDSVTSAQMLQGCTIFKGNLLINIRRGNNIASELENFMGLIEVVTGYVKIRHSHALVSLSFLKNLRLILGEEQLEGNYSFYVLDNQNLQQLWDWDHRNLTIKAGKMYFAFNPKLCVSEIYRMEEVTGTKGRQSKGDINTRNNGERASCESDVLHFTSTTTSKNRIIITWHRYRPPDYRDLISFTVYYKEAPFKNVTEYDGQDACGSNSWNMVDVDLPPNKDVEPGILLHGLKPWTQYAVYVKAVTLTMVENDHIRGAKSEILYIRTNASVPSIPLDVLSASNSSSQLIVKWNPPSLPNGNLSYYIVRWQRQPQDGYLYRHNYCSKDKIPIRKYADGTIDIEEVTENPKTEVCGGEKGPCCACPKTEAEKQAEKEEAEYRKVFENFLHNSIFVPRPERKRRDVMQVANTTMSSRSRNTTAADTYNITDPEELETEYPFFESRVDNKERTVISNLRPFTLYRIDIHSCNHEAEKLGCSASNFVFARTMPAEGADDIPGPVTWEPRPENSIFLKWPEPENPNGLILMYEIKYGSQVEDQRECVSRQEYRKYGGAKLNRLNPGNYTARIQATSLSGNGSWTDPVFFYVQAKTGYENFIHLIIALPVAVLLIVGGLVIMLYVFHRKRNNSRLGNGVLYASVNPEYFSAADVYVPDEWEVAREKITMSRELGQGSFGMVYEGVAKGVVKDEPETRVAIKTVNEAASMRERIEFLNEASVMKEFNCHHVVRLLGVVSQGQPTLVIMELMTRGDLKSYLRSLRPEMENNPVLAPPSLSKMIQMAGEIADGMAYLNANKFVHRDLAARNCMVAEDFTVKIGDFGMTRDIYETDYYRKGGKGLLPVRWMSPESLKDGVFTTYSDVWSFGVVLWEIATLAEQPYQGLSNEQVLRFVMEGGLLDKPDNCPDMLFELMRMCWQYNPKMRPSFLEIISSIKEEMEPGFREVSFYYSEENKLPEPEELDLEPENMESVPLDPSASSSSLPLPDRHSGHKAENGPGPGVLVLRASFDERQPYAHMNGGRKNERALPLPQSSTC

[16] = target: CHEK2 (human) (UniProt O96017); conditions: ATP 70 µM
[17] = target: LIMK1 (human) (UniProt P53667); conditions: ATP 15 µM
[18] = target: MTOR (human) (UniProt P42345); conditions: ATP 70 µM
[19] = target: VRK2 (human) (UniProt Q86Y07); conditions: ATP 70 µM
Sequence of VRK2 (human) (Q86Y07 whole entry, looked up): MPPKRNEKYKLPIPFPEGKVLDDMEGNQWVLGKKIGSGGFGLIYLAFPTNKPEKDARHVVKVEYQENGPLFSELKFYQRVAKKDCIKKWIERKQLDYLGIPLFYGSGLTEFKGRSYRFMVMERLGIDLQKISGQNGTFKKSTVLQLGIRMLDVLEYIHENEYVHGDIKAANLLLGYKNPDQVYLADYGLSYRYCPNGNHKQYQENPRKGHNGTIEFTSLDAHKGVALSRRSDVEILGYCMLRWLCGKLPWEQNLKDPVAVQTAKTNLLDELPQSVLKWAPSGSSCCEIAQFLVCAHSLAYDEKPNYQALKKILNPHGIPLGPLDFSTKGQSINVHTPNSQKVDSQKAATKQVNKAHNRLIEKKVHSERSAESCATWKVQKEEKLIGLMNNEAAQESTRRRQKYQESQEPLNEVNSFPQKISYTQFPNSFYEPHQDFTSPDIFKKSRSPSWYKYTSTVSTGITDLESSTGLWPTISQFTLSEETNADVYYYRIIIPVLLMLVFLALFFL

[20] = target: GCK (human) (UniProt Q12851); conditions: ATP 200 µM
[21] = target: CDK6 CCND3 (human) (UniProt P30281+Q00534); conditions: ATP 200 µM
[22] = target: MAPK1 (human) (UniProt P28482); conditions: ATP 155 µM
Sequence of MAPK1 (human) (P28482 whole entry, looked up): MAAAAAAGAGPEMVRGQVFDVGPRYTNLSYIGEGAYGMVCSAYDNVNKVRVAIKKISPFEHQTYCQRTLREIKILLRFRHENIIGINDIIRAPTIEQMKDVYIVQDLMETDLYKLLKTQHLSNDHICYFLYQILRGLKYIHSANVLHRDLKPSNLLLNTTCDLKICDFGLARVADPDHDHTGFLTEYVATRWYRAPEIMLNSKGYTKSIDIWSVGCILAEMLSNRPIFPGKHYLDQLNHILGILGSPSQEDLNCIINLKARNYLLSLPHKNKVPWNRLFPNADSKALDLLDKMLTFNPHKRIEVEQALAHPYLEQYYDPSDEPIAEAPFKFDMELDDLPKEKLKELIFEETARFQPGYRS

[23] = target: PRKAA2 PRKAB1 PRKAG1 (human) (UniProt P54619+P54646+Q9Y478); conditions: ATP 45 µM
[24] = target: PRKX (human) (UniProt P51817); conditions: ATP 200 µM
[25] = test system: AXL (human), P30530 [Q764R]; conditions: ATP 90 µM
[26] = target: HIPK1 (human) (UniProt Q86Z02); conditions: ATP 45 µM
[27] = target: DYRK2 (human) (UniProt Q92630); conditions: ATP 15 µM
Sequence of DYRK2 (human) (Q92630 whole entry, looked up): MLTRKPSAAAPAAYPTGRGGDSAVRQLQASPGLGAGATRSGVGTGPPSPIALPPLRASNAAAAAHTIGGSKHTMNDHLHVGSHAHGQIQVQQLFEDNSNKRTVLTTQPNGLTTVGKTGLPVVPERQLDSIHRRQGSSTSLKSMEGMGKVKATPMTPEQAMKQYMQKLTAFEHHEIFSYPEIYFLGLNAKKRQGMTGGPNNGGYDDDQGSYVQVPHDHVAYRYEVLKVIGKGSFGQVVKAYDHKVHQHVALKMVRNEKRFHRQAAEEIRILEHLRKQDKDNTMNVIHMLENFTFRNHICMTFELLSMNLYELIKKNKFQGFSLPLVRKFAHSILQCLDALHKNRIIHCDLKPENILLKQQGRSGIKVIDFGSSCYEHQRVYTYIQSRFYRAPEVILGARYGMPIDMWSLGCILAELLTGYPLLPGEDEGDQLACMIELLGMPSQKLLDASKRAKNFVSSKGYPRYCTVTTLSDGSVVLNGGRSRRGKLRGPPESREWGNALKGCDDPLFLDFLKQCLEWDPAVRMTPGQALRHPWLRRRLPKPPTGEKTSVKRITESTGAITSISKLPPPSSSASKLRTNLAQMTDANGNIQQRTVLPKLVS

[28] = target: KDR (human) (UniProt P35968); conditions: ATP 90 µM
[29] = target: CSNK2A1 CSNK2B CSNK2A2 (human) (UniProt P19784+P68400+P67870); conditions: ATP 15 µM
[30] = target: CDC42BPB (human) (UniProt Q9Y5S2); conditions: ATP 10 µM
[31] = target: CDK7 CCNH MNAT1 (human) (UniProt P50613+P51948+P51946); conditions: ATP 90 µM
[32] = target: CHUK (human) (UniProt O15111); conditions: ATP 10 µM

Sequence of SRPK1 (human) (Q96SB4 whole entry, looked up): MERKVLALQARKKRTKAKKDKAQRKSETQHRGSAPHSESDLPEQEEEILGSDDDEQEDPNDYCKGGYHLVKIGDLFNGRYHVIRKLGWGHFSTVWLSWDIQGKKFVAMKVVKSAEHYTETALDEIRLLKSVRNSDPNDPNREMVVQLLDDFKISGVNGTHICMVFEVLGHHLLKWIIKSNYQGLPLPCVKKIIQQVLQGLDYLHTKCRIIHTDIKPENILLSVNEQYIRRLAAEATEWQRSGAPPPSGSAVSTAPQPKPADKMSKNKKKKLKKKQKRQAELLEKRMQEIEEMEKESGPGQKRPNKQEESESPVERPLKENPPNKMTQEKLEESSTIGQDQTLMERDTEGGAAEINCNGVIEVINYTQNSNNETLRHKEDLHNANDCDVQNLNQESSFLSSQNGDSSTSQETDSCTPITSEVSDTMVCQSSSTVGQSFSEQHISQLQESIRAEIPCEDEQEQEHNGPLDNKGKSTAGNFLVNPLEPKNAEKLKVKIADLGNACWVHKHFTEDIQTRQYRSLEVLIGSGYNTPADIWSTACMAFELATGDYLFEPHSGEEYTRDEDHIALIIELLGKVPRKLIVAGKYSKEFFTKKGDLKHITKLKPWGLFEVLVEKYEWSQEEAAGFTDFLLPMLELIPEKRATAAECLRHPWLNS

residual activity ([1]; compound 1.0 µM): 119%
residual activity ([1]; compound 10.0 µM): 74%
residual activity ([2]; compound 1.0 µM): 63%
residual activity ([2]; compound 10.0 µM): 40%
residual activity ([3]; compound 1.0 µM): 65%
residual activity ([3]; compound 10.0 µM): 30%
residual activity ([4]; compound 1.0 µM): 90%
residual activity ([4]; compound 10.0 µM): 66%
residual activity ([5]; compound 1.0 µM): 39%
residual activity ([5]; compound 10.0 µM): 2%
residual activity ([6]; compound 1.0 µM): 84%
residual activity ([6]; compound 10.0 µM): 43%
residual activity ([7]; compound 1.0 µM): 91%
residual activity ([7]; compound 10.0 µM): 103%
residual activity ([8]; compound 1.0 µM): 35%
residual activity ([8]; compound 10.0 µM): 5%
residual activity ([9]; compound 1.0 µM): 58%
residual activity ([9]; compound 10.0 µM): 9%
residual activity ([10]; compound 1.0 µM): 5%
residual activity ([10]; compound 10.0 µM): 1%
residual activity ([11]; compound 1.0 µM): 93%
residual activity ([11]; compound 10.0 µM): 83%
residual activity ([12]; compound 1.0 µM): 0%
residual activity ([12]; compound 10.0 µM): 0%
residual activity ([13]; compound 1.0 µM): 58%
residual activity ([13]; compound 10.0 µM): 5%
residual activity ([14]; compound 1.0 µM): 88%
residual activity ([14]; compound 10.0 µM): 19%
residual activity ([15]; compound 1.0 µM, ATP 45 µM): 40%
residual activity ([15]; compound 1.0 µM, ATP 200 µM): 37%
residual activity ([15]; compound 10.0 µM, ATP 45 µM): 20%
residual activity ([15]; compound 10.0 µM, ATP 200 µM): 26%
residual activity ([16]; compound 1.0 µM): 13%
residual activity ([16]; compound 10.0 µM): 2%
residual activity ([17]; compound 1.0 µM): 61%
residual activity ([17]; compound 10.0 µM): 21%
residual activity ([18]; compound 1.0 µM): 100%
residual activity ([18]; compound 10.0 µM): 98%
residual activity ([19]; compound 1.0 µM): 71%
residual activity ([19]; compound 10.0 µM): 28%
residual activity ([20]; compound 1.0 µM): 13%
residual activity ([20]; compound 10.0 µM): 1%
residual activity ([21]; compound 1.0 µM): 16%
residual activity ([21]; compound 10.0 µM): 5%
residual activity ([22]; compound 1.0 µM): 104%
residual activity ([22]; compound 10.0 µM): 103%
residual activity ([23]; compound 1.0 µM): 1%
residual activity ([23]; compound 10.0 µM): 3%
residual activity ([24]; compound 1.0 µM): 48%
residual activity ([24]; compound 10.0 µM): 33%
residual activity ([25]; compound 1.0 µM): 17%
residual activity ([25]; compound 10.0 µM): 8%
residual activity ([26]; compound 1.0 µM): 90%
residual activity ([26]; compound 10.0 µM): 73%
residual activity ([27]; compound 1.0 µM): 79%
residual activity ([27]; compound 10.0 µM): 20%
residual activity ([28]; compound 1.0 µM): 4%
residual activity ([28]; compound 10.0 µM): 1%
residual activity ([29]; compound 1.0 µM): 112%
residual activity ([29]; compound 10.0 µM): 78%
residual activity ([30]; compound 1.0 µM): 106%
residual activity ([30]; compound 10.0 µM): 103%
residual activity ([31]; compound 1.0 µM): 42%
residual activity ([31]; compound 10.0 µM): 16%
residual activity ([32]; compound 1.0 µM): 76%
residual activity ([32]; compound 10.0 µM): 57%
SMILES: O=C1Nc2ccccc2/C1=C1\Nc2ccccc2\C1=N/O
